Experimental data as given in patent US10138233B2, “Imidazole compounds as modulators of FSHR and uses thereof” (Merck Patent GmbH, priority 2013, dated 2018).

Tests used:
[1] = biological target: T1, FSHR (Homo sapiens, UniProt P23945); test: EC50 of cyclic AMP production in CHO FSHR cells + EC20 FSH (Assay A); type: cell-based; conditions: CHO-FSHR-LUC cells, in presence of EC20 FSH, cAMP HTRF, 1 h 37° C.
T1 construct: expressed in transfected cells; host or cells: CHO cells, clone Cho-FSHR-LUC-1-1-43
T1 sequence (P23945 18-695): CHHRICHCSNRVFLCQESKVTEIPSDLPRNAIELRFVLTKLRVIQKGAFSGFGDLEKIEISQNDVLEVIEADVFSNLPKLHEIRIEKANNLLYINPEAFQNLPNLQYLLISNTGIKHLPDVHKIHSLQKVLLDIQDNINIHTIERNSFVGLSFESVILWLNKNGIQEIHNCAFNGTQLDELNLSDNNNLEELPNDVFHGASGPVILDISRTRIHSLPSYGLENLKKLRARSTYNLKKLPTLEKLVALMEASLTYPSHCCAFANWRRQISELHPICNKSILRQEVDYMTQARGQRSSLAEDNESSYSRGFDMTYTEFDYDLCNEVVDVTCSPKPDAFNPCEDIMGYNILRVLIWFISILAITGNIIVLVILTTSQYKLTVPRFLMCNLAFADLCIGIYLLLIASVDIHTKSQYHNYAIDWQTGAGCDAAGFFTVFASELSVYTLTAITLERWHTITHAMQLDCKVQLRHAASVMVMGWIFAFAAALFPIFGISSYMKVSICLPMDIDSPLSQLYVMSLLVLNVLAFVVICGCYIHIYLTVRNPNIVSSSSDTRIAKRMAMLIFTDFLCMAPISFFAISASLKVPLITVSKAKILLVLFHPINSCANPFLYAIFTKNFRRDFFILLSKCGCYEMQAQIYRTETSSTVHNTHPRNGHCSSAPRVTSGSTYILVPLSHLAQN

[2] = biological target: T2, follicle-stimulating hormone (FSH) receptor (Rattus norvegicus, UniProt P20395); test: Rat Granulosa EC50 FSH (Assay B); type: cell-based; conditions: rat granulosa cells, per Yanofsky et al. 2006
T2 construct: Rat Granulosa EC50 FSH (Assay B); endogenous in cells; host or cells: rat granulosa cells
T2 sequence (P20395 18-692): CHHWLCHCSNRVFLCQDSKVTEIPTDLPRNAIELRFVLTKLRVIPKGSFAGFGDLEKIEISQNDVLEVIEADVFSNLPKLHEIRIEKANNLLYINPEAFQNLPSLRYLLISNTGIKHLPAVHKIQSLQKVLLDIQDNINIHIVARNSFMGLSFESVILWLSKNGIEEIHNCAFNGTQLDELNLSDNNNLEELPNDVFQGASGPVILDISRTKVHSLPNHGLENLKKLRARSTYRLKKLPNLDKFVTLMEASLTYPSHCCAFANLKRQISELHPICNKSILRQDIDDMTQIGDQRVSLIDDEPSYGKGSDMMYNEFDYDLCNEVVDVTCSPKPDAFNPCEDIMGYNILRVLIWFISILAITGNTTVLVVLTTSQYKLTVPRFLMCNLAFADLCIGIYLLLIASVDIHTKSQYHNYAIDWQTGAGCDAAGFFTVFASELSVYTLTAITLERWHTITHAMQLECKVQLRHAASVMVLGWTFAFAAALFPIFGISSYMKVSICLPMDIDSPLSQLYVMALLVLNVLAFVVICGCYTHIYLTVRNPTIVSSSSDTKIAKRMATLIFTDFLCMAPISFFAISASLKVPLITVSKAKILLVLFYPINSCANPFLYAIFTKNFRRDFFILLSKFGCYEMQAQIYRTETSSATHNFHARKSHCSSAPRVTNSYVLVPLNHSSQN

Row | Compound | EC50 [1] | EC50 [2]
1 | COc1cc2c(cc1-c1ccn(C)c1)-n1c(-c3cccs3)nc(C(=O)N3CCOCC3(C)C)c1CC2 [Compound 143, (3,3-Dimethyl-morpholin-4-yl)-[7-methoxy-8-(1-methyl-1H-pyrrol-3-yl)-1-thiophen-2-yl-4,5-dihydro-imidazo[1,5-a]quinolin-3-yl]-methanone] | < 100 nM | > 5000 nM
2 | COc1cc2c(cc1CC(C)C)-n1c(-c3cccs3)nc(C(=O)N(C)CCN3CCOC3=O)c1CC2 [Compound 25, 8-Isobutyl-7-methoxy-1-thiophen-2-yl-4,5-dihydro-imidazo[1,5-a]quinoline-3-carboxylic acid methyl-[2-(2-oxo-oxazolidin-3-yl)-ethyl]-amide] | < 100 nM | 100 to 1000 nM
3 | COc1cc2c(cc1CC(C)C)-n1c(-c3ccc(F)s3)nc(C(=O)N3CCOCC3(C)C)c1CC2 [Compound 19, (3,3-Dimethyl-morpholin-4-yl)-[1-(5-fluoro-thiophen-2-yl)-8-isobutyl-7-methoxy-4,5-dihydro-imidazo[1,5-a]quinolin-3-yl]-methanone] | < 100 nM | 100 to 1000 nM
4 | COc1cc2c(cc1OC(C)C)-n1c(-c3ccc(F)c(F)c3)nc(C(=O)N3CCOCC3(C)C)c1CC2 [Compound 102] | 100 to 1000 nM | 1000 to 5000 nM
5 | COc1cc2c(cc1OC(C)C)-n1c(-c3cc(Cl)cs3)nc(C(=O)N3CCOCC3(C)C)c1CC2 [Compound 114] | < 100 nM | 100 to 1000 nM
6 | [2H]C([2H])([2H])OCC(C)(C)N(C(=O)c1nc(-c2cccs2)n2c1CCc1cc(OC)c(CC(C)C)cc1-2)C([2H])([2H])[2H] [Compound 32, 8-Isobutyl-7-methoxy-1-thiophen-2-yl-4,5-dihydro-imidazo[1,5-a]quinoline-3-carboxylic acid (2-methoxy-d3-1,1-dimethyl-ethyl)-methyl-d3-amide] | < 100 nM | > 5000 nM
7 | COc1cc2c(cc1OC(C)C)-n1c(-c3cc(C)cs3)nc(C(=O)N3CCOCC3(C)C)c1CC2 [Compound 70] | < 100 nM | 1000 to 5000 nM
8 | COc1cc2c(cc1CC(C)C)-n1c(-c3ccc[nH]3)nc(C(=O)N3CCOCC3(C)C)c1CC2 [Compound 30, (3,3-Dimethyl-morpholin-4-yl)-[8-isobutyl-7-methoxy-1-(1H-pyrrol-2-yl)-4,5-dihydro-imidazo[1,5-a]quinolin-3-yl]-methanone] | 100 to 1000 nM | > 5000 nM
9 | COc1cc2c(cc1-c1c[nH]nc1C)-n1c(-c3ccsc3)nc(C(=O)N(C)C(C)(C)C)c1CC2 [Compound 76, 7-Methoxy-8-(3-methyl-1H-pyrazol-4-yl)-1-thiophen-3-yl-4,5-dihydro-imidazo+1,5-a+quinoline-3-carboxylic acid tert-butyl-methyl-amide] | < 100 nM | 100 to 1000 nM
10 | COc1cc2c(cc1OC(C)C)-n1c(-c3ccc(Cl)s3)nc(C(=O)N3CCOCC3(C)C)c1CC2 [Compound 72] | < 100 nM | < 100 nM
11 | COc1cc2c(cc1OC(C)C)-n1c(-c3ccc(C)s3)nc(C(=O)N3CCOCC3(C)C)c1CC2 [Compound 71] | < 100 nM | 100 to 1000 nM
12 | COc1cc2c(cc1CC(C)C)-n1c(-c3ccc(Cl)s3)nc(C(=O)N(C)C(C)(C)C)c1CC2 [Compound 97, 1-(5-Chloro-thiophen-2-yl)-8-isobutyl-7-methoxy-4,5-dihydro-imidazo[1,5-a]quinoline-3-carboxylic acid tert-butyl-methyl-amide] | < 100 nM | 100 to 1000 nM
13 | COc1cc2c(cc1OC(C)C)-n1c(C3=CCCC3)nc(C(=O)N3CCOCC3(C)C)c1CC2 [Compound 49] | 100 to 1000 nM | > 5000 nM
14 | COc1cc2c(cc1OC(C)C)-n1c(-c3cccn3C)nc(C(=O)N3CCOCC3(C)C)c1CC2 [Compound 38] | 100 to 1000 nM | > 5000 nM
15 | COc1cc2c(cc1-c1ccn(C)n1)-n1c(-c3cccc(Cl)c3)nc(C(=O)N3CCOCC3(C)C)c1CC2 [Compound 148, (1-(3-chlorophenyl)-7-methoxy-8-(1-methyl-1H-pyrazol-3-yl)-4,5-dihydroimidazo[1,5-a]quinolin-3-yl)(3,3-dimethylmorpholino)methanone] | 100 to 1000 nM | 1000 to 5000 nM
16 | COc1cc2c(cc1OC(C)C)-n1c(-c3cc(Cl)cc(Cl)c3)nc(C(=O)N3CCOCC3(C)C)c1CC2 [Compound 110] | < 100 nM | 100 to 1000 nM

Row | Compound | EC50 [1] | EC50 [2]
17 | COc1cc2c(cc1OC(C)C)-n1c(-c3cccc(Cl)c3F)nc(C(=O)N3CCOCC3(C)C)c1CC2 [Compound 134] | 100 to 1000 nM | 100 to 1000 nM
18 | COc1cc2c(cc1CC(C)C)-n1c(S(=O)(=O)C3CC3)nc(C(=O)N(C)C(C)(C)C)c1CC2 [Compound 34, 1-Cyclopropanesulfonyl-8-isobutyl-7-methoxy-4,5-dihydro-imidazo[1,5-a]quinoline-3-carboxylic acid tert-butyl-methyl-amide] | 100 to 1000 nM | 1000 to 5000 nM
19 | COc1cc2c(cc1OC(C)C)-n1c(-c3ccc(F)s3)nc(C(=O)N3CCOCC3(C)C)c1CC2 [Compound 59] | < 100 nM | 100 to 1000 nM
20 | COc1cc2c(cc1OC(C)C)-n1c(-c3cccs3)nc(C(=O)N3CCCN(C(=O)C4CCC4)CC3)c1CC2 [Compound 7] | < 100 nM | 100 to 1000 nM
21 | [2H]C([2H])([2H])n1cc(-c2cc3c(cc2OC)CCc2c(C(=O)N4CCOCC4(C)C)nc(-c4cccn4C)n2-3)cn1 [Compound 149, (3,3-dimethylmorpholino)(7-methoxy-8-(1-methyl-1H pyrazol-4-yl)-1-(1-methyl-1H-pyrrol-2-yl)-4,5-dihydroimidazo[1,5-a]quinolin-3-yl)methanone] | < 100 nM | 1000 to 5000 nM
22 | COc1cc2c(cc1OC(C)C)-n1c(-c3cccc(Cl)c3)nc(C(=O)N3CCOCC3(C)C)c1CC2 [Compound 44] | 100 to 1000 nM | > 5000 nM
23 | [2H]C([2H])([2H])N(CCN(C(=O)c1nc(-c2cccs2)n2c1CCc1cc(OC)c(CC(C)C)cc1-2)C([2H])([2H])[2H])C(C)=O [Compound 31, 8-Isobutyl-7-methoxy-1-thiophen-2-yl-4,5-dihydro-imidazo[1,5-a]quinoline-3-carboxylic acid [2-(acetyl-methyl-d3-amino)-ethyl]-methyl-d3-amide] | 100 to 1000 nM | > 5000 nM
24 | COc1cc2c(cc1CC(C)C)-n1c(-c3cn[nH]c3C)nc(C(=O)N3CCOCC3(C)C)c1CC2 [Compound 27, (3,3-Dimethyl-morpholin-4-yl)-[8-isobutyl-7-methoxy-1-(5-methyl-1H-pyrazol-4-yl)-4,5-dihydro-imidazo[1,5-a]quinolin-3-yl]-methanone] | 1000 to 5000 nM | –
25 | COc1cc2c(cc1OC(C)C)-n1c(-c3ccn(C)n3)nc(C(=O)N3CCOCC3(C)C)c1CC2 [Compound 43] | > 5000 nM | –
26 | COc1cc2c(cc1OC(C)C)-n1c(-c3cn[nH]c3)nc(C(=O)N3CCOCC3(C)C)c1CC2 [Compound 61] | > 5000 nM | –
27 | COc1cc2c(cc1OC(C)C)-n1c(C3=CCCCO3)nc(C(=O)N3CCOCC3(C)C)c1CC2 [Compound 50] | 100 to 1000 nM | –
28 | COc1cc2c(cc1OC(C)C)-n1c(-c3cc(C(F)(F)F)cc(C(F)(F)F)c3)nc(C(=O)N3CCOCC3(C)C)c1CC2 [Compound 119] | 100 to 1000 nM | –
29 | COc1cc2c(cc1OC(C)C)-n1c(C3=CCOCC3)nc(C(=O)N3CCOCC3(C)C)c1CC2 [Compound 79] | 100 to 1000 nM | –
30 | COc1cc2c(cc1-c1ccn(C)n1)-n1c(-c3ccsc3)nc(C(=O)N(C)C(C)(C)C)c1CC2 [Compound 77, 7-Methoxy-8-(1-methyl-1H-pyrazol-3-yl)-1-thiophen-3-yl-4,5-dihydro-imidazo[1,5-a]quinoline-3-carboxylic acid tert-butyl-methyl-amide] | 100 to 1000 nM | –
31 | COc1cc2c(cc1OC(C)C)-n1c(-c3cccc(Cl)c3Cl)nc(C(=O)N3CCOCC3(C)C)c1CC2 [Compound 142] | 100 to 1000 nM | –
